Measurements as given in US9326972B2, “Use of phenylmethimazoles, methimazole derivatives, and tautomeric cyclic thiones for the treatment of autoimmune/inflammatory diseases associated with toll-like receptor overexpression” (Ohio University, priority 2004, dated 2016).
Where “and” joins values, the source holds several entries; their conditions need not be identical. Identical values can stand only once.

How the values were obtained:
TLR3 = test: Inhibition of IFN-β- or dsRNA transfection-increased TLR3, PKR, MHC class I RNA in FRTL-5 thyrocytes (Northern/PCR); type: cell-based, rat; conditions: for % TLR3 Inhibition vs Control: 3 replicates
Experimental: FIG. 4. Phenylmethimazole (C10) and Methimazole (MMI) inhibit the ability of IFN-β to increase TLR3, PKR, and MHC class I RNA levels in FRTL-5 thyrocytes. Cells were incubated with or without 100 U/ml of IFN-β for 3 hours in the presence of dimethyl sulfoxide (DMSO), C10, or MMI. DMSO is the vehicle control. Northern blots were performed with 20 ug of total RNA to detect TLR 3, PKR, MHC I, and GAPDH using radiolabeled cDNA probes. Data are representative of multiple experiments. As was the case for Poly (I:C) transfection in FIG. 2B, IFN-β increased TLR3.
We evaluated the ability of C10 and MMI to inhibit TLR3 expression and signaling. C10 prevented the ability of dsRNA transfection and incubation with IFN-β to increase TLR3RNA levels in FRTL-5 cells, as measured by PCR (FIG. 4A). […] DMSO is the vehicle for C10 because of the hydrophobicity of C10; it had no significant effect on basal activity and was used as the control value in all experiments described herein.
The C-10 and MMI reduced the ability of IFN-β to increase PKR and MHC class I RNA levels, albeit relatively less than TLR3 (FIG. 4B). […] We questioned the C10 mechanism of action.
RNA Isolation and Northern Analysis. […] .
RT-PCR. DNA was removed from total RNA using the DNA-free Kit (Ambion) according to the manufacturer's instructions. One μg of RNA was used to synthesize cDNA using the Advantage RT-for-PCR Kit (BD Biosciences) according to the manufacturer's protocol. Fifty ng of cDNA was subsequently used for PCR of TLR-3, and β-Actin; 250 ng of cDNA was used for PCR of IFN-β. The primers used for amplification of human TLR-3 and β-Actin have been previously described (K. U. Saikh, et al., Clin Diagn Lab Immunol, 10:1065-73 (2003)).

Stat1 = test: Activated Stat1 in kidney and lung lysates of LPS-treated mice (immunoblot); type: in vivo, mouse; conditions: LPS-treated mice of Table 5
Source text: In order to more definitively determine if LPS-induced IFN-β signaling and LPS-induced increases in IRF-1 and IP-10 in vivo might be attenuated by an effect of C10 treatment on Stat1 activation, protein phosphorylation levels of Stat1 in whole tissue lysates were examined in mice from Table 5. […] In contrast neither LPS nor C10 had any effect on total Stat1 in these tissues (FIG. 8, bottom blots). […] Based on literature studies described in immune cells and results we have described in nonimmune cells (FIGS. 4-6; Tables 2, 3), it is reasonable to state that C10 blocks Stat1/IRF-1 signals in vivo as well as in vitro, this is important in the therapy of toxic shock where these genes are not only involved but critical to disease expression. C10 therapy is thus important in reducing pathologic changes in multiple tissues whose organ failure is known to contribute to the signs and symptoms of toxic shock.
Immunoblot analysis of RAW 264.7 and mouse tissues: Nuclear and cytoplasmic extracts for RAW cells were prepared using NE-PER® extraction reagents (Pierce, Rockford, Ill.) in the presence of a protease inhibitor mixture (PMSF, leupeptin, and pepstatin A). […] Binding of HRP-conjugated goat anti-rabbit Ab (sc-2054; Santa Cruz Biotechnology, Inc., Santa Cruz, Calif.) was detected using the ECLplus Western Blotting Detection System (Amersham Biosciences, Piscataway, N.J.).

[1] = Solubility and storage stability of C10 solutions; type: physicochemical
Source text: In the studies described in Table 5, C10 was formulated in DMSO and administered i.p. DMSO was used due to the low solubility of C10 in aqueous environments but can have well documented independent effects (M. S. Ivanovic, et al., Toxicology Letters, 147:153-159 (2004))]. […] To circumvent these issues, we used a proprietary cyclodextrin (CD) excipient that is approved by the FDA for use in humans to make an aqueous formulation of C10. […] In a test using LPS-induced toxic shock, oral excipient-solubilized C10, stored in diluted form at 4° C. for 8 weeks, was as effective in preventing death as was freshly made C10 i.p. in DMSO at the same 1 mg/kg dose.

RAW 264.7 cells = test: LPS-induced cytokine mRNA in RAW 264.7 macrophages (real-time PCR, Northern); conditions: RAW 264.7, LPS 1 μg/mL
[2] = 1 hour, real-time PCR vs DMSO control
[3] = 3 hours, real-time PCR vs DMSO control

Cn1c(-c2ccccc2)cnc1S [Compound C10, 5-Phenylmethimazole]
decrease of TLR3 and IFN-β-mRNA levels in thyrocytes vs solutions with DMSO (TLR3; C10 stored in aqueous cyclodextrin preparation for 6 weeks prior to use): equally effective
IFN-β increased MHC class I and PKR mRNA levels (TLR3; FRTL-5, 100 U/ml IFN-β 3 hours): significantly decreased
IFN-β-increased TLR3 RNA levels (TLR3; FRTL-5, 100 U/ml IFN-β 3 hours, C10 0.5 mM, MMI 5 mM): totally prevented
IFN-β increased MHC class I and PKR mRNA levels (TLR3; FRTL-5, 100 U/ml IFN-β 3 hours, listed as C-10): reduced
basal level of TLR 3 mRNA (TLR3; FRTL-5, no IFN-β): slightly reduced
% TLR3 Inhibition vs Control (TLR3; IFN-β increased TLR3 RNA, C10 0.1 mM in Excip.): 90%
% TLR3 Inhibition vs Control (TLR3; dsRNA increased TLR3 RNA, C10 0.1 mM in DMSO): 90%
activated (phosphorylated) Stat1 protein levels in kidney and lung (Stat1): reduced to basal
solubility in aqueous environments [1]: low
stability of C10 solubilized in DMSO and diluted to a working concentration [1]: not stable for prolonged periods of time
activity of C10 diluted in DMSO and stored in diluted form ([1]; stored at either 4° C. or −70° C., in vitro or in vivo): inactive
reduction in LPS-increased TNF-α (RAW 264.7 cells; 1 or 6 hours, real-time PCR): no reduction
decrease in LPS-increased IFN-β gene expression (RAW 264.7 cells; [2]): 8 fold
decrease in LPS-induced IL-1β (RAW 264.7 cells; [2]): 11 fold
decrease in LPS-increased IL-6 (RAW 264.7 cells; [3]): 16 fold and > 16 fold
reduction in LPS-increased TNF-α (RAW 264.7 cells; [3]): 4 fold
reduction in LPS-induced IL-12 p40 (RAW 264.7 cells; 6 hours, real-time PCR vs DMSO control): 16 fold
